Laboratory results as given in ChEMBL document CHEMBL4819038, “Structure based design and synthesis of novel Toll-like Receptor 2 (TLR 2) lipid antagonists” (Bioorg Med Chem Lett, 2021).

Columns and labels:
Toll-like receptor 2 [1] = biological target: T1, Toll-like receptor 2 (Homo sapiens, UniProt O60603); experiment: Antagonist activity at human TLR2 expressed in HEK-Blue cells assessed as inhibition of Pam3CSK4-induced TLR2/TLR1 activation by measuring decrease in NFkappaB activation pretreated for 2 hrs followed by incubation with agonist for 18 hrs by SEAP assay; type: cell-based, HEK-Blue hTLR2
Toll-like receptor 2 [2] = biological target: T1, Toll-like receptor 2; experiment: Antagonist activity at human TLR2 expressed in HEK-Blue cells assessed as inhibition of Pam2CSK4-induced TLR2/TLR6 activation by measuring decrease in NFkappaB activation pretreated for 2 hrs followed by incubation with agonist for 18 hrs by SEAP assay; type: cell-based, HEK-Blue hTLR2
[3] = Stability of the compound in simulated gastric fluid; type: ADME; settings: simulated gi fluid
[4] = Stability of the compound in PBS buffer/EtOH; type: physicochemical

T1 sequence (O60603 whole entry): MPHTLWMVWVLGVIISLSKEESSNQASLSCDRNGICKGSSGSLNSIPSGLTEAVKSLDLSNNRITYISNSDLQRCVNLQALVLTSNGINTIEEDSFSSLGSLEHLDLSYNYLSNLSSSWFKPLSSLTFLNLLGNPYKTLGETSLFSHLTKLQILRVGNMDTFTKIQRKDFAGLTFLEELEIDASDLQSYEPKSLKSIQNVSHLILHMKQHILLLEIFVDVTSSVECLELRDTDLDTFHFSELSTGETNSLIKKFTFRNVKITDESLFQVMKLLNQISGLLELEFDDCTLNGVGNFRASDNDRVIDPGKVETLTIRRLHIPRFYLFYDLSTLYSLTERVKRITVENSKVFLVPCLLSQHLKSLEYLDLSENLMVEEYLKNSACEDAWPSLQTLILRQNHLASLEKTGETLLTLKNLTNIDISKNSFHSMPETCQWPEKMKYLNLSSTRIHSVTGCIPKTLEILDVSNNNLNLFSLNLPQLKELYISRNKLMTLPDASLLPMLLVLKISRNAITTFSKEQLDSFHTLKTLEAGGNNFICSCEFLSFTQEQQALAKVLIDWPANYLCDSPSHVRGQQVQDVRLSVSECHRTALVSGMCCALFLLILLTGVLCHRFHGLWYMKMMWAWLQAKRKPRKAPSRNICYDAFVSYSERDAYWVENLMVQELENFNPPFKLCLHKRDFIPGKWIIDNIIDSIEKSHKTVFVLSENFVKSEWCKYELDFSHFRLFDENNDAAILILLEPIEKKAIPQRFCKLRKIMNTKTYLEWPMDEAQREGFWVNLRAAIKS

SMILES	IC50 (Toll-like receptor 2 [1]) [µM]	IC50 (Toll-like receptor 2 [2]) [µM]	Stabilty [3] [h]	Stabilty [4] [h]
CCCCCCCCCCCCCCOCC(CNC(=O)C(CC1CCNCC1)NC(=O)OCC1c2ccccc2-c2ccccc21)OCCCCCCCCCCCCCC (configuration not stated)	1.8	16.7	–	–
CCCCCCCOCCNC(=O)[C@H](CCCCN)NCc1ccccc1	22.6	13.7	–	–
CCCCCCCCCCCCCCOCC(CNC(=O)[C@H](CCCCN)NCc1ccc(F)cc1)OCCCCCCCCCCCCCC (some centres not stated)	2.9	> 30	–	–
CCCCCCCCCCCCCCOCC(CNC(=O)CC[C@H](NC(=O)OCC1c2ccccc2-c2ccccc21)C(=O)O)OCCCCCCCCCCCCCC (some centres not stated)	8.7	13.3	–	–
CCCCCCCCCCCCCCOCC(CNC(=O)c1cccc(C2CCNCC2)c1)OCCCCCCCCCCCCCC.Cl (configuration not stated)	–	–	> 1	> 1
CCCCCCCCCCCCCCOCC(CNC(=O)C1(NC(=O)OCc2ccccc2)CCNCC1)OCCCCCCCCCCCCCC (configuration not stated)	2.6	> 30	–	–
CCCCCCCCCCCCCCNC(=O)[C@H](CCCCN)NCc1ccccc1	14.5	11.3	–	–
CCCCCCCCCCCCCCOCC(CNC(=O)[C@H]1CCCN1)OCCCCCCCCCCCCCC (some centres not stated)	14.3	> 30	–	–
CCCCCCCCCCCCCCOCC(CNC(=O)[C@@H](CCCCN)NCc1ccccc1)OCCCCCCCCCCCCCC.Cl (some centres not stated)	–	–	> 1	> 1
CCCCC/C=C\CCCCCCCOCC(CNC(=O)c1cccc(C2CCNCC2)c1)OCCCCCCC/C=C\CCCCC (configuration not stated)	18.5	16.9	–	–
CCCCCCCCCCCCCCOCC(CNC(=O)CCCCCN)OCCCCCCCCCCCCCC (configuration not stated)	> 20	> 30	–	–
CCCCC/C=C\C/C=C\CCCCCCCCOCC(CNC(=O)c1cccc(C2CCNCC2)c1)OCCCCCCCC/C=C\C/C=C\CCCCC (configuration not stated)	3.3	16.1	–	–
CCCCCCCOC(CNC(=O)[C@H](CCCCN)NCc1ccccc1)COC (some centres not stated)	> 30	> 30	–	–
CCCCCCCCCCCCCCOCC(CNC(=O)[C@@H](CCCCN)NC(=O)OCc1ccccc1)OCCCCCCCCCCCCCC (some centres not stated)	2.3	> 30	–	–
CCCCCCCCCCCCCCOCC(CNC(=O)[C@H](CCCCN)NC(=O)OCC1c2ccccc2-c2ccccc21)OCCCCCCCCCCCCCC (some centres not stated)	1.6	> 30	–	–
CCCCCCCCCCCCCCOCC(CNC(=O)[C@H](CCCCN)NCc1ccc(-c2ccccc2)cc1)OCCCCCCCCCCCCCC (some centres not stated)	2.8	27.9	–	–
